Where “and” joins values, the source holds several entries; their conditions need not be identical. Identical values can stand only once. Like-named read-outs stand apart in the source and are kept apart here.
Columns and labels:
[1] = system: glucose metabolism in the brain
human PPARδ = molecular target: T1, human PPARδ (Homo sapiens, UniProt Q03181); assay: Human PPAR activation, transient transfection in CV-1 cells (δ subtype); type: cell-based
T1 construct: expressed in transfected cells; host or cells: CV-1 cells
T1 sequence (Q03181 1-441): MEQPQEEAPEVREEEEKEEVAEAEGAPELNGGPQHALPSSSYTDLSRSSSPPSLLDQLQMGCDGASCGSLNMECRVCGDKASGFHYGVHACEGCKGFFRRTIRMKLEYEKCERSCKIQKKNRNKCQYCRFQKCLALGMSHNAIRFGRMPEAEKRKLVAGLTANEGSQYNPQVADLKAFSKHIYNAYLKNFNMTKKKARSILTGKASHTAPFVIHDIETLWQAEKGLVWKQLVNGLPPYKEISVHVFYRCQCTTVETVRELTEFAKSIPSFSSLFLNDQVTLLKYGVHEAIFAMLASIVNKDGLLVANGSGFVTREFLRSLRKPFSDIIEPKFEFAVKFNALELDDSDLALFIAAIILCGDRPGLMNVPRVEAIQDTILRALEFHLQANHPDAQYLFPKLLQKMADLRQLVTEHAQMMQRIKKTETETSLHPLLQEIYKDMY

human PPARα = molecular target: T2, human PPARα (Homo sapiens, UniProt Q07869); assay: Human PPAR activation, transient transfection in CV-1 cells (alpha subtype); type: cell-based
T2 construct: expressed in transfected cells; host or cells: CV-1 cells
T2 sequence (Q07869 1-468): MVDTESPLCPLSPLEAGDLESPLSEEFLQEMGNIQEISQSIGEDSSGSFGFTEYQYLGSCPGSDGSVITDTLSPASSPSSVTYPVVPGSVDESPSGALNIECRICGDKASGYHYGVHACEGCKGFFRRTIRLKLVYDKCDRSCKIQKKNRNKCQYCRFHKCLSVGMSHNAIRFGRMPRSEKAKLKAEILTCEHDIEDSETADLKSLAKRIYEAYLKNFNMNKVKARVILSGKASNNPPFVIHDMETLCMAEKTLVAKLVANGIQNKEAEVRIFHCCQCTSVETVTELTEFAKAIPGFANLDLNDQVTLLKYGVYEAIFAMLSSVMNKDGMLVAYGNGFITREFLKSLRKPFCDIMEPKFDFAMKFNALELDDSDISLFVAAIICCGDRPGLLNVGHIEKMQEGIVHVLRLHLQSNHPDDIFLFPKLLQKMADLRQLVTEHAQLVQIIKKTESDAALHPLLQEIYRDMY
Source text: (§1) PPAR receptor agonist activity may be determined by conventional screening methods known to the skilled in the art. For example, methods described in U.S. Patent Application Publication No. 2007/0054907, 2008/0262047 and U.S. Pat. No. 7,314,879, which are incorporated by reference in their entireties.
(§2) The table summarize the results of studies performed in transfected CV-1 cells with three different lots of Compound of Example 11. […].

human PPARγ = molecular target: T3, human PPARγ (Homo sapiens, UniProt P37231); assay: Human PPAR activation, transient transfection in CV-1 cells (gamma subtype); type: cell-based
T3 construct: expressed in transfected cells; host or cells: CV-1 cells
T3 sequence (P37231 1-505): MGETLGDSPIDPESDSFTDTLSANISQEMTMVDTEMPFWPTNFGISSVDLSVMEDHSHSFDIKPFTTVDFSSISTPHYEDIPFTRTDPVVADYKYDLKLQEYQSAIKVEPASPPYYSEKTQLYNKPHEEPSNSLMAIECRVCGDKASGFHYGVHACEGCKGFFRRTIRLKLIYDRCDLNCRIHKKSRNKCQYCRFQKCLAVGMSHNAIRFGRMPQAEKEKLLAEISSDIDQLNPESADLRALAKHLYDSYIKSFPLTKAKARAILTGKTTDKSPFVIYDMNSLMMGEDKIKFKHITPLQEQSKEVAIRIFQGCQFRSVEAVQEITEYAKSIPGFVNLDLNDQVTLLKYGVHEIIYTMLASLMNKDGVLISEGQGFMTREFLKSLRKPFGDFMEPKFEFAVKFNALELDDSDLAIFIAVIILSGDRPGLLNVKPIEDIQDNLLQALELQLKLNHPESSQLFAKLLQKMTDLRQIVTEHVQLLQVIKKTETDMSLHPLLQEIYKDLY
Source text: as §1, §2

P-glycoprotein (P-gp) = P-glycoprotein (P-gp) (Homo sapiens, UniProt P08183); assay: P-gp substrate assessment (Caco-2, verapamil)
[2] = time point 1.0, individual rats
[3] = time point 3.0, individual rats
[4] = time point 5.0, individual rats
[5] = time point 7.0, individual rats
[6] = time point 12.0, individual rats
[7] = 3 mg, White Matter as Reference Region
[8] = 3 mg, Whole Brain as Reference Region
[9] = 10 mg, White Matter as Reference Region
[10] = 10 mg, Whole Brain as Reference Region
[11] = 30 mg, White Matter as Reference Region
[12] = 30 mg, Whole Brain as Reference Region
[13] = 90 mg, White Matter as Reference Region
[14] = 90 mg, Whole Brain as Reference Region

Sequence of P-glycoprotein (P-gp) (P08183 whole entry): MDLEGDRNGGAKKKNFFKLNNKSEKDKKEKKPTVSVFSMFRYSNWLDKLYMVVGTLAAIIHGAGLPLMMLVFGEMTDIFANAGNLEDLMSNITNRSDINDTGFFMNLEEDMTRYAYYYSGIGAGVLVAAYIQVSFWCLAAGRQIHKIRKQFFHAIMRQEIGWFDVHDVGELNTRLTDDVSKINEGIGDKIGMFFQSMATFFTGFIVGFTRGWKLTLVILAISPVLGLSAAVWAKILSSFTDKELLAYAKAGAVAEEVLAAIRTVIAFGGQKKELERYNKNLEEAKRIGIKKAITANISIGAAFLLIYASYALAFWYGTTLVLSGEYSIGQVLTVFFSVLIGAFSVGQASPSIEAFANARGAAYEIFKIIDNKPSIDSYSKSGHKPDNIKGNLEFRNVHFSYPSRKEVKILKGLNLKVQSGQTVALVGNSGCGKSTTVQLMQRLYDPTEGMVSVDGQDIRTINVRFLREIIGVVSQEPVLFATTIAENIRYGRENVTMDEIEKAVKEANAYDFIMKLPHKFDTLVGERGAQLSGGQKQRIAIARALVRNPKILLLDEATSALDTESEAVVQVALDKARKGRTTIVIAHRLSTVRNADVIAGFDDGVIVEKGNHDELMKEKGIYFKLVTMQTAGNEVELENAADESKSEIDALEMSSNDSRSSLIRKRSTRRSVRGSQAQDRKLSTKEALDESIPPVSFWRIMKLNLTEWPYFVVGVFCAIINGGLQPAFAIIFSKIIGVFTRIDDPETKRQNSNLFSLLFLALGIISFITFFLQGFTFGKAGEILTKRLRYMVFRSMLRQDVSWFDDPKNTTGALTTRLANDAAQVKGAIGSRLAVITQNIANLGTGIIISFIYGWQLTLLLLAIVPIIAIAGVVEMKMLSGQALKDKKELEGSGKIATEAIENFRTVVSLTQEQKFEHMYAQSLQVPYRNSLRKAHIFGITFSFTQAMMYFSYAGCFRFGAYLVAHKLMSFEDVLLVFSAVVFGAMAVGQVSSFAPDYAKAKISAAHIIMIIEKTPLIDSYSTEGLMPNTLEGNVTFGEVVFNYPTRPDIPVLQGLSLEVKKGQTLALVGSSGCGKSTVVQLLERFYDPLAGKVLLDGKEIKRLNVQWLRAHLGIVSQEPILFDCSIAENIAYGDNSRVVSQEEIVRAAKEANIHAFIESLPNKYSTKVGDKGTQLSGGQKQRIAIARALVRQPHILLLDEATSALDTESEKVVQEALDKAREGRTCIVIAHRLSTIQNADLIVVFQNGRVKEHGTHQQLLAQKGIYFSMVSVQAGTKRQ

## CCc1oc(-c2ccc(OC)cc2)nc1CCOc1ccc2c(c1)CC[C@H]2CC(=O)[O-].[Na+] [Example 11, Sodium (S)-2-(5-(2-(5-ethyl-2-(4-methoxyphenyl)oxazol-4-yl)ethoxy)-2,3-dihydro-1H-inden-1-yl)acetate]
[2]
  B/P Ratio: 0.22 and 0.36 and 0.51
  Brain Tissue Cone.: 226 ng/g and 161 ng/g and 101 ng/g
Time point 1.0, three rats
  Average (B/P Ratio): 0.361
[3]
  B/P Ratio: 0.26 and 0.21 and 0.19
  Brain Tissue Cone.: 234 ng/g and 269 ng/g and 274 ng/g
  Plasma Conc.: 1270 ng/mL and 1430 ng/mL
Time point 3.0, three rats
  Average (B/P Ratio): 0.220
[4]
  B/P Ratio: 0.17 and 0.18 and 0.16
  Brain Tissue Cone.: 208 ng/g and 247 ng/g and 333 ng/g
  Plasma Conc.: 1260 ng/mL and 1340 ng/mL and 2040 ng/mL
Time point 5.0, three rats
  Average (B/P Ratio): 0.171
[5]
  B/P Ratio: 0.16 and 0.35 and 0.47
  Brain Tissue Cone.: 203 ng/g and 216 ng/g
Time point 7.0, three rats
  Average (B/P Ratio): 0.328
[6]
  B/P Ratio: 0.30 and 0.44 and 0.31
  Brain Tissue Cone.: 104 ng/g and 114 ng/g and 117 ng/g
  Plasma Conc.: 345 ng/mL and 259 ng/mL and 377 ng/mL
Time point 12.0, three rats
  Average (B/P Ratio): 0.350
[1]; [7]
  Δ R CMRgI (EOT-BL) Sensory Motor Cortex Left, Ave: −0.0005
  Δ R CMRgI (EOT-BL) Sensory Motor Cortex Right, Ave: −0.0151
  Δ R CMRgI (EOT-BL) Visual Cortex Left, Ave: −0.0219
  Δ R CMRgI (EOT-BL) Visual Cortex Right, Ave: −0.0272
[1]; [8]
  Δ R CMRgI (EOT-BL) Sensory Motor Cortex Left, Ave: 0.0152
  Δ R CMRgI (EOT-BL) Sensory Motor Cortex Right, Ave: −0.0037
  Δ R CMRgI (EOT-BL) Visual Cortex Left, Ave: −0.0196
  Δ R CMRgI (EOT-BL) Visual Cortex Right, Ave: −0.0269
[1]; 10 mg
  spatial extent of ROSDs with positive ΔR CMRgl (EOT-BL) relative to Whole Brain: 70 voxels
[1]; [9]
  Δ R CMRgI (EOT-BL) Sensory Motor Cortex Left, Ave: 0.0005
  Δ R CMRgI (EOT-BL) Sensory Motor Cortex Right, Ave: −0.0005
  Δ R CMRgI (EOT-BL) Visual Cortex Left, Ave: −0.0014
  Δ R CMRgI (EOT-BL) Visual Cortex Right, Ave: −0.0033
[1]; [10]
  Δ R CMRgI (EOT-BL) Sensory Motor Cortex Left, Ave: 0.0008
  Δ R CMRgI (EOT-BL) Sensory Motor Cortex Right, Ave: 0.0003
  Δ R CMRgI (EOT-BL) Visual Cortex Left, Ave: −0.0032
  Δ R CMRgI (EOT-BL) Visual Cortex Right, Ave: −0.0053
[1]; [11]
  Δ R CMRgI (EOT-BL) Sensory Motor Cortex Left, Ave: −0.0040
  Δ R CMRgI (EOT-BL) Sensory Motor Cortex Right, Ave: −0.0229
  Δ R CMRgI (EOT-BL) Visual Cortex Left, Ave: −0.0314
  Δ R CMRgI (EOT-BL) Visual Cortex Right, Ave: −0.0408
[1]; [12]
  Δ R CMRgI (EOT-BL) Sensory Motor Cortex Left, Ave: 0.0213
  Δ R CMRgI (EOT-BL) Sensory Motor Cortex Right, Ave: −0.0040
  Δ R CMRgI (EOT-BL) Visual Cortex Left, Ave: −0.0158
  Δ R CMRgI (EOT-BL) Visual Cortex Right, Ave: −0.0271
[1]; [13]
  Δ R CMRgI (EOT-BL) Sensory Motor Cortex Left, Ave: −0.0076
  Δ R CMRgI (EOT-BL) Sensory Motor Cortex Right, Ave: −0.0078
  Δ R CMRgI (EOT-BL) Visual Cortex Left, Ave: −0.0775
  Δ R CMRgI (EOT-BL) Visual Cortex Right, Ave: −0.0730
[1]; [14]
  Δ R CMRgI (EOT-BL) Sensory Motor Cortex Left, Ave: 0.0244
  Δ R CMRgI (EOT-BL) Sensory Motor Cortex Right, Ave: 0.0251
  Δ R CMRgI (EOT-BL) Visual Cortex Left, Ave: −0.0685
  Δ R CMRgI (EOT-BL) Visual Cortex Right, Ave: −0.0604
[1]; 3 to 90 mg
  dose dependence of effect on FDG-PET outcomes: dose-dependent
[1]; two week treatment
  effect on glucose metabolism in the brain: altered the glucose metabolism in the brain
[1]; voxel-wise (SPM) analysis, even at the lowest 3 mg
  Blood Brain Barrier penetration inferred from FDG-PET: penetrates the Blood Brain Barrier (BBB)
Human PPARδ
  Peak effect PPARδ: 17.68
  greater potency in activating human PPARδ subtype over human PPARγ subtype: 15 fold
Human PPARα
  Peak effect PPARα: 1.87
  maximal response, human alpha subtype: significantly reduced maximal response
Human PPARγ
  Peak effect PPARγ: 29.49
P-glycoprotein (P-gp)
  substrate for P-gp: not a substrate for P-gp
